# Test results taken from patent US9452185B2, “Mesenchymal stem cells and supports for tissue regeneration, repair and reconstruction” (THE TEXAS A&M UNIVERSITY SYSTEM, priority 2009, dated 2016).
# Entries after “also recorded” stand apart in the source; their conditions may differ.
# Key:
# [1] = test system: β-catenin, GSK3β, PPARγ; assay: Intracellular distribution of β-catenin, GSK3β and PPARγ (immunoblot, fluorescence microscopy); format: cell-based, human; conditions: for GSK3β in the cytoplasm / nuclear β-catenin: MSCs under osteogenic conditions
# Protocol: Protein extraction, gel electrophoresis and western blotting. Nuclear extracts were performed by Triton extraction and differential centrifugation as previously described (Gregory et al., 2003, J Biol Chem 278:2806728078). Proteins were electrophoresed and blotted onto nitrocellulose using an electrophoresis system. Histochemistry and immunocytochemistry. For β-catenin localization studies, hMSCs were stained with a cy-3 conjugated anti-β-catenin antibody and nuclei were counterstained with pico-green dye. Specimens were processed as paraffin blocks and 8 longitudinal sections were prepared, deparaffinized and rehydrated, then stained with hematoxylin and eosin. For immunocytochemistry, sections were probed with an anti-human β-2-microglobulin antibody. An upright fluorescent microscope fitted with a high performance camera (and image analysis software was employed for imaging.
# [2] = test system: hMSCs; assay: Late stage osteogenesis, Alizarin Red S (ARS) staining; format: cell-based, human; conditions: for dex-induced biomineralization with simultaneous treatment: 17 days with β-GP, ascorbate and dex; for dex-induced mineralization after pre-treatment: BIO 200 and 800 nM, GW 1.0 and 10.0 μM for 8 days, then 15 days with dex; for biomineralization in the absence of dex: extended incubation
# Protocol: Late stage osteogenesis and ARS staining. Mature osteogenic assays were performed in 6 well format as previously described (Gregory et al., 2004, Anal Biochem 329:77-84).
# Effect of GSK3β and PPARγ inhibition on late stage osteogenesis. […] Initially, experiments were conducted to examine whether pre-treatment of hMSCs with inhibitors BIO (200 and 800 nM) and GW (1.0 and 10.0 μM) in the presence of β-glycerophosphate (β-GP) and ascorbate for 8 days followed by 15 days in the same media supplemented with dex affected mineralization of the cultures. If BIO or GW function to accelerate the cells through the immature stages of osteogenesis and partially to maturity, hMSCs exposed to these conditions would be expected to respond more rapidly to the steroid-dependent mature osteoblast transition. After differentiation, calcium content was visualized by Alizarin Red S (ARS) staining and the dye was extracted and quantified. At the doses tested, and in a dose-dependent manner, BIO and GW enhanced dex-induced differentiation into biomineralizing osteoblasts (FIG. 21).
# The next experiments were performed to examine whether withdrawal of the Wnt stimulus caused by BIO and GW was necessary for the hMSCs to progress to a dex-dependent biomineralizing phenotype. Human MSCs were pre-cultured with BIO and GW in the presence of f3-GP, ascorbate and dex for 17 days. […] Clotted human plasma is a biocompatible and osteoinductive vector for administration of hMSCs
# [3] = test system: calvarial defects; assay: Histology of 50-day calvaria (H&E, tetracycline tracing, blood vessels); format: in vivo, nude mice
# Protocol: Histochemistry and immunocytochemistry. For β-catenin localization studies, hMSCs were stained with a cy-3 conjugated anti-β-catenin antibody and nuclei were counterstained with pico-green dye. Specimens were processed as paraffin blocks and 8 longitudinal sections were prepared, deparaffinized and rehydrated, then stained with hematoxylin and eosin. For immunocytochemistry, sections were probed with an anti-human β-2-microglobulin antibody. An upright fluorescent microscope fitted with a high performance camera (and image analysis software was employed for imaging. Tetracycline tracing of in vivo calcium deposition. The tetracycline was imaged using an upright fluorescent microscope fitted with a high performance camera and analyzed using software. Embedding, sectioning and mounting was carried out on non-decalcified material. Semi-quantitative blood vessel measurements. Calvaria were fixed, decalcified and sectioned in paraffin and stained with hematoxylin and eosin as described. Using NIS-Elements image analysis software, the surface area of blood vessels in a defined ROI was calculated and totaled. The values were expressed as the mean of total blood vessel area from 3 animals per group. […] Using NIS-Elements image analysis software, the surface area of blood vessels in the 2D ROI was calculated for each section and totaled. […]
# [4] = test system: hMSCs; assay: ECM production by hMSC monolayers (nodules, recovered volume, calcium); format: cell-based, human
# Protocol: Micro computer aided tomography (μCT) briefly included scanning of identical calvaria over 360° using a 50 kV beam with a camera resolution of 12 μm. Images were captured every 0.4° with flat field correction and frame averaging enabled. Using mock specimens, grayscale ranges were calibrated over intact bone, partially formed bone and radiolucent tissue over a fixed linear range (corresponding to approximately −100 to +1000 Hounsfield units). Axial reconstructions were generated from the scans and quantified using a appropriate CT software. Once again, each reconstruction parameter was identical and performed over a fixed and linear intensity range in each case so as to reproducibly distinguish bone, partial bone and radiolucent tissue. In each case, ring artifact, smoothing, and beam hardening corrections were enabled. Three dimensional renderings for qualitative appraisal were generated using one or more volume software. Measurements of recovered matrix volume were performed using similar parameters, but the beam power was lowered to 30 kV. For extracellular matrix (ECM) production, hMSC monolayers were treated for 8 days with GW9662 or control OBM media in the usual manner described previously. Mineralizing osteogenic media was then added for a further 10 days with changes every 2 days. Hereafter, all volumes refer to a single 150 cm^2 monolayer culture. Monolayers were washed in PBS and frozen at −80° C. to disrupt cell membranes, thawed to ambient temperature and scraped from the culture plate. Recovered cells and ECM were then pelleted by centrifugation (1,800 G) and suspended in 10 mL of lysis buffer consisting of PBS containing 0.1% (v/v) Triton X100, 1 mM MgCl2, 10 μg mL^−1 DNAse I and 10 μg mL^−1 RNAseA. […] Calcium levels in matrices described were determined using an acid hydrolysis ArsenazoIII method previously described by others. […] Colorimetric determination of calcium was performed by addition of Arsenazo III compound and monitoring the change in absorbance at 595 nm using a plate reader.
smiles,measurement,setting,value
"O=C1Nc2cc(Br)ccc2/C1=C1/Nc2ccccc2/C1=N\O [BIO, bromo-indirubin-3′-mono-oxime]",nuclear levels of PPARγ,[1],reduced
same,GSK3β in the cytoplasm,[1],depletion
same,nuclear β-catenin,[1],increased levels
same,dex-induced biomineralization with simultaneous treatment,[2],enhanced dex-induced biomineralization
same,dex-induced mineralization after pre-treatment,[2],enhanced
same,biomineralization in the absence of dex,[2],did not induce biomineralization
"O=C(Nc1ccccc1)c1cc([N+](=O)[O-])ccc1Cl [GW9662, 2-chloro-5-nitro-N-phenyl-benzamide]",nuclear levels of PPARγ,[1],reduced
same,GSK3β in the cytoplasm,[1],depletion
same,nuclear β-catenin,[1],increased levels
same,"new bone formation, histology",[3]; day 50,new bone formation was detected
same,ability of MSCs to initiate angiogenesis at trauma sites,"[3]; day 50, blood vessels",had not affected
same,calcium content in recovered ECM,[4]; GW9662 vs DMSO,elevated calcium levels; also recorded: substantially more calcium mineral than controls
same,volume of ECM recovered,[4]; GW9662 vs vehicle treated cells,greater volume of ECM; also recorded: substantial increase in the yield
same,ECM nodules by phase contrast microscopy,"[4]; hMSC cultures, GW9662 treatment",distinct formation of nodules; also recorded: increased
same,dex-induced biomineralization with simultaneous treatment,[2],enhanced dex-induced biomineralization
same,dex-induced mineralization after pre-treatment,[2],enhanced
same,biomineralization in the absence of dex,[2],did not induce biomineralization
